Laboratory results published in ChEMBL document CHEMBL5150068, “Structure-Based Design of Tropane Derivatives as a Novel Series of CCR5 Antagonists with Broad-Spectrum Anti-HIV-1 Activities and Improved Oral Bioavailability” (J Med Chem, 2022).

Columns and labels:
[1] = target: C-C chemokine receptor type 5 (Homo sapiens, UniProt P51681); assay: Antagonist activity at CCR5 (unknown origin) expressed in HEK293 cells co-expressing Galpha16 assessed as intracellular calcium change incubated for 15 mins by Fluo-4 AM calcium flux assay; assay type: functional, cell-based
[2] = test system: Human immunodeficiency virus 1; assay: Antiviral activity against HIV-1 Ba-L infected in human TZM-bl cells measured after 48 hrs incubation by luciferase based analysis; assay type: functional, organism-based; conditions: Human immunodeficiency virus 1, Ba-L
[3] = Cytotoxicity against human TZM-bl cells incubated for 48 hrs by MTT assay; assay type: toxicity, cell-based
[4] = Cytotoxicity against human PM1 cells incubated for 48 hrs by MTT assay; assay type: toxicity, cell-based
[5] = Cytotoxicity against human HOS-CD4-CCR5 cells incubated for 48 hrs by MTT assay; assay type: toxicity, cell-based
[6] = Cytotoxicity against human PBMC cells incubated for 48 hrs by MTT assay; assay type: toxicity, cell-based
[7] = test system: Human immunodeficiency virus 1; assay: Antiviral activity against HIV-1 SF162 infected in human TZM-bl cells measured after 48 hrs incubation by luciferase based analysis; assay type: functional, organism-based; conditions: Human immunodeficiency virus 1, SF162, TZM-bl
[8] = test system: Human immunodeficiency virus 1; assay: Antiviral activity against HIV-1 YU-2 infected in human TZM-bl cells measured after 48 hrs incubation by luciferase based analysis; assay type: functional, organism-based; conditions: Human immunodeficiency virus 1, YU-2, TZM-bl, 48 h
[9] = test system: Human immunodeficiency virus 1; assay: Antiviral activity against HIV-1 Ba-L infected in human HOS-CD4-CCR5 cells measured after 48 hrs incubation by ELISA based p24 antigen assay; assay type: functional, organism-based; conditions: Human immunodeficiency virus 1, Ba-L
[10] = test system: Human immunodeficiency virus 1; assay: Antiviral activity against HIV-1 Ba-L infected in human PM1 cells measured after 48 hrs incubation by ELISA based p24 antigen assay; assay type: functional, organism-based; conditions: Human immunodeficiency virus 1, Ba-L, PM1, 48 h
[11] = test system: Human immunodeficiency virus 1; assay: Antiviral activity against HIV-1 IIIB infected in human TZM-bl cells measured after 48 hrs incubation by luciferase based analysis; assay type: functional, organism-based; conditions: Human immunodeficiency virus 1, IIIB
[12] = test system: Human immunodeficiency virus 1; assay: Antiviral activity against HIV-1 KM018 clinical isolate infected in human PBMC measured after 48 hrs incubation by luciferase based analysis; assay type: functional, organism-based; conditions: Human immunodeficiency virus 1, KM018, PBMC
[13] = test system: Human immunodeficiency virus 1; assay: Antiviral activity against HIV-1 KIZ001 clinical isolate infected in human PBMC measured after 48 hrs incubation by luciferase based analysis; assay type: functional, organism-based; conditions: Human immunodeficiency virus 1, KIZ001, PBMC
[14] = test system: Human immunodeficiency virus 1; assay: Antiviral activity against HIV-1 KIZ006 clinical isolate infected in human PBMC measured after 48 hrs incubation by luciferase based analysis; assay type: functional, organism-based; conditions: Human immunodeficiency virus 1, KIZ006, PBMC
[15] = test system: Human immunodeficiency virus 1; assay: Antiviral activity against HIV-1 YU-2 (G140S/Q148H) infected in human TZM-bl cells measured after 48 hrs incubation by luciferase based analysis; assay type: functional, organism-based; conditions: Human immunodeficiency virus 1, YU-2 (G140S/Q148H)
[16] = test system: Human immunodeficiency virus 1; assay: Synergistic antiviral activity against HIV-1 Ba-L infected in human TZM-bl cells assessed as combination index in presence of zidovudine; assay type: functional
[17] = test system: Human immunodeficiency virus 1; assay: Synergistic antiviral activity against HIV-1 Ba-L infected in human TZM-bl cells assessed as combination index in presence of lamivudine; assay type: functional
[18] = test system: Human immunodeficiency virus 1; assay: Synergistic antiviral activity against HIV-1 Ba-L infected in human TZM-bl cells assessed as combination index in presence of tenofovir; assay type: functional
[19] = test system: Human immunodeficiency virus 1; assay: Synergistic antiviral activity against HIV-1 Ba-L infected in human TZM-bl cells assessed as combination index in presence of etravirine; assay type: functional
[20] = test system: Human immunodeficiency virus 1; assay: Synergistic antiviral activity against HIV-1 Ba-L infected in human TZM-bl cells assessed as combination index in presence of emtricitabine; assay type: functional
[21] = test system: Human immunodeficiency virus 1; assay: Synergistic antiviral activity against HIV-1 Ba-L infected in human TZM-bl cells assessed as combination index in presence of nevirapine; assay type: functional
[22] = test system: Human immunodeficiency virus 1; assay: Synergistic antiviral activity against HIV-1 Ba-L infected in human TZM-bl cells assessed as combination index in presence of efavirenz; assay type: functional
[23] = test system: Human immunodeficiency virus 1; assay: Synergistic antiviral activity against HIV-1 Ba-L infected in human TZM-bl cells assessed as combination index in presence of raltegravir; assay type: functional
[24] = test system: Human immunodeficiency virus 1; assay: Synergistic antiviral activity against HIV-1 Ba-L infected in human TZM-bl cells assessed as combination index in presence of dolutegravir; assay type: functional
[25] = test system: Human immunodeficiency virus 1; assay: Synergistic antiviral activity against HIV-1 Ba-L infected in human TZM-bl cells assessed as combination index in presence of indinavir; assay type: functional
[26] = test system: Human immunodeficiency virus 1; assay: Synergistic antiviral activity against HIV-1 Ba-L infected in human TZM-bl cells assessed as combination index in presence of T-20; assay type: functional
[27] = Cmax in Sprague-Dawley rat at 10 mg/kg, po measured upto 24 hrs; assay type: ADME, organism-based; design: time < 24 hrs, dose 10 mg/kg, route po; conditions: in vivo
[28] = Tmax in Sprague-Dawley rat at 10 mg/kg, po measured upto 24 hrs; assay type: ADME, organism-based; conditions: in vivo
[29] = Half life in Sprague-Dawley rat at 10 mg/kg, po measured upto 24 hrs; assay type: ADME, organism-based; conditions: in vivo
[30] = AUC (0 to last) in Sprague-Dawley rat at 10 mg/kg, po measured upto 24 hrs; assay type: ADME, organism-based; design: dose 10 mg/kg, time < 24 hrs, route po; conditions: in vivo
[31] = AUC (0 to infinitive) in Sprague-Dawley rat at 10 mg/kg, po measured upto 24 hrs; assay type: ADME, organism-based; design: dose 10 mg/kg, time < 24 hrs, route po; conditions: in vivo
[32] = MRT in Sprague-Dawley rat at 10 mg/kg, po measured upto 24 hrs; assay type: ADME, organism-based; conditions: in vivo
[33] = Oral bioavailability in Sprague-Dawley rat at 10 mg/kg measured upto 24 hrs; assay type: ADME, organism-based; conditions: in vivo, po, 10 mg/kg, 24 h
[34] = Half life in Sprague-Dawley rat at 2 mg/kg, iv measured upto 24 hrs; assay type: ADME, organism-based; conditions: Sprague-Dawley, in vivo
[35] = AUC (0 to last) in Sprague-Dawley rat at 2 mg/kg, iv measured upto 24 hrs; assay type: ADME, organism-based; design: dose 2 mg/kg, time < 24 hrs, route iv; conditions: in vivo, 24 h
[36] = AUC (0 to infinitive) in Sprague-Dawley rat at 2 mg/kg, iv measured upto 24 hrs; assay type: ADME, organism-based; design: dose 2 mg/kg, time < 24 hrs, route iv; conditions: in vivo, 24 h
[37] = MRT in Sprague-Dawley rat at 2 mg/kg, iv measured upto 24 hrs; assay type: ADME, organism-based; conditions: Sprague-Dawley, in vivo, read-out: MRT
Cytochrome P450 1A2 = target: T1, Cytochrome P450 1A2 (Homo sapiens, UniProt P05177); assay: Inhibition of CYP1A2 (unknown origin); assay type: ADME
T1 sequence (P05177 whole entry): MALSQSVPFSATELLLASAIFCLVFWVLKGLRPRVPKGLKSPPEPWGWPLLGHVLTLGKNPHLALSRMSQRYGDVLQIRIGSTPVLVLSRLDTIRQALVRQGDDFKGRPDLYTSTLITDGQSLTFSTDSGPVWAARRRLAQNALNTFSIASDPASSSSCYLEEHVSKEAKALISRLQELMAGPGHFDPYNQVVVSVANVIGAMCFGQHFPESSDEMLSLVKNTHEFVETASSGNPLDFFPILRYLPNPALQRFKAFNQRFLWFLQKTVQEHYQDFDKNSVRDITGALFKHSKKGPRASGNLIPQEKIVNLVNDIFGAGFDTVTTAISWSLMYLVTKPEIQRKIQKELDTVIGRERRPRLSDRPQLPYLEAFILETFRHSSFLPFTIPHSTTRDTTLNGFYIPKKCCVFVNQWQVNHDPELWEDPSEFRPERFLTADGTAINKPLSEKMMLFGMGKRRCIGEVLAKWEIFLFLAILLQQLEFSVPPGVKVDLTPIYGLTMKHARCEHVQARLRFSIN

Cytochrome P450 2C9 = Cytochrome P450 2C9 (Homo sapiens, UniProt P11712); assay: Inhibition of CYP2C9 (unknown origin); assay type: ADME
Cytochrome P450 2C19 = Cytochrome P450 2C19 (Homo sapiens, UniProt P33261); assay: Inhibition of CYP2C19 (unknown origin); assay type: ADME
Cytochrome P450 2D6 = Cytochrome P450 2D6 (Homo sapiens, UniProt P10635); assay: Inhibition of CYP2D6 (unknown origin); assay type: ADME
Cytochrome P450 3A4 [38] = target: T2, Cytochrome P450 3A4 (Homo sapiens, UniProt P08684); assay: Inhibition of CYP3A4 (unknown origin) using midazolam as substrate; assay type: ADME
Cytochrome P450 3A4 [39] = target: T2, Cytochrome P450 3A4; assay: Inhibition of CYP3A4 (unknown origin) using testosterone as substrate; assay type: ADME
in vitro [40] = conditions: human, TZM-bl cells
Description: Therapeutic index, ratio of CC50 for human TZM-bl cells to EC50 for antiviral activity against HIV-1 Ba-L

in vitro [41] = conditions: human, HOS-CD4-CCR5 cells
Description: Therapeutic index, ratio of CC50 for human HOS-CD4-CCR5 cells to EC50 for antiviral activity against HIV-1 Ba-L

in vitro [42] = conditions: human, PM1 cells
Description: Therapeutic index, ratio of CC50 for human PM1 cells to EC50 for antiviral activity against HIV-1 Ba-L

in vitro [43] = conditions: human, PM1 cells; remark: listed apart in the source
Description: Therapeutic index, ratio of CC50 for human PM1 cells to EC50 for antiviral activity against HIV-1 YU-2

in vitro [44] = conditions: human, PM1 cells; remark: listed apart in the source
Description: Therapeutic index, ratio of CC50 for human PM1 cells to EC50 for antiviral activity against HIV-1 SF162

in vitro [45] = conditions: human, PBMC
Description: Therapeutic index, ratio of CC50 for human PBMC to EC50 for antiviral activity against HIV-1 KM018 clinical isolate

in vitro [46] = conditions: human, PBMC; remark: listed apart in the source
Description: Therapeutic index, ratio of CC50 for human PBMC to EC50 for antiviral activity against HIV-1 KIZ001 clinical isolate

in vitro [47] = conditions: human, PBMC; remark: listed apart in the source
Description: Therapeutic index, ratio of CC50 for human PBMC to EC50 for antiviral activity against HIV-1 KIZ006 clinical isolate

[48] = Half life in Sprague-Dawley rat at 1 mg/kg, iv measured upto 24 hrs; assay type: ADME, organism-based; conditions: in vivo
[49] = Clearance in Sprague-Dawley rat at 1 mg/kg, iv measured upto 24 hrs; assay type: ADME, organism-based; conditions: in vivo

Chain of Cytochrome P450 2D6 (P10635 whole entry): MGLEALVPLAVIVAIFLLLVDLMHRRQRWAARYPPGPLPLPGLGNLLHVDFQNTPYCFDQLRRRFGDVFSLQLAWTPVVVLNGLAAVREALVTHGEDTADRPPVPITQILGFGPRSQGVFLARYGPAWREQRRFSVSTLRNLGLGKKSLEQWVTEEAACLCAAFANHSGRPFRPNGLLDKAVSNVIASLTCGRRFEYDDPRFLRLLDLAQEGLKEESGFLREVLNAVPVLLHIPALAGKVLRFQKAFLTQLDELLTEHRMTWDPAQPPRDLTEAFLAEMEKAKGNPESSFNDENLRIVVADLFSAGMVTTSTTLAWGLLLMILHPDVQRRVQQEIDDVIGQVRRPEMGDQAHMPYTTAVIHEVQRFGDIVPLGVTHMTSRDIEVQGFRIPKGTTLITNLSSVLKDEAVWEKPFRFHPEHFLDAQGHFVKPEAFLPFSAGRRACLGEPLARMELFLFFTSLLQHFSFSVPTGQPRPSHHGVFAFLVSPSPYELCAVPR
Chain of Cytochrome P450 2C19 (P33261 whole entry): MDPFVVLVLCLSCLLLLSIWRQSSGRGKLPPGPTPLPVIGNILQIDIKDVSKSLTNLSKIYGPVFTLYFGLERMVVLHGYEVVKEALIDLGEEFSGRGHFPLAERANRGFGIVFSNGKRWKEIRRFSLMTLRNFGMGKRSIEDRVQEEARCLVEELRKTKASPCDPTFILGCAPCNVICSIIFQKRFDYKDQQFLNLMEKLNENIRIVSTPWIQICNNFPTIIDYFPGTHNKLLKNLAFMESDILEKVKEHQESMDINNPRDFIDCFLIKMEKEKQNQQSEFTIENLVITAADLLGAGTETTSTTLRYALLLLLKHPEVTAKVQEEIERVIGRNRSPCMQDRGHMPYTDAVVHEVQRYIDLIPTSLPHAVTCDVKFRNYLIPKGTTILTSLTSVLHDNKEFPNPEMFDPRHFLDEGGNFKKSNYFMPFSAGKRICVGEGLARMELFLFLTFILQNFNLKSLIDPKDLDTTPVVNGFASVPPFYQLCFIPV
T2 sequence (P08684 whole entry): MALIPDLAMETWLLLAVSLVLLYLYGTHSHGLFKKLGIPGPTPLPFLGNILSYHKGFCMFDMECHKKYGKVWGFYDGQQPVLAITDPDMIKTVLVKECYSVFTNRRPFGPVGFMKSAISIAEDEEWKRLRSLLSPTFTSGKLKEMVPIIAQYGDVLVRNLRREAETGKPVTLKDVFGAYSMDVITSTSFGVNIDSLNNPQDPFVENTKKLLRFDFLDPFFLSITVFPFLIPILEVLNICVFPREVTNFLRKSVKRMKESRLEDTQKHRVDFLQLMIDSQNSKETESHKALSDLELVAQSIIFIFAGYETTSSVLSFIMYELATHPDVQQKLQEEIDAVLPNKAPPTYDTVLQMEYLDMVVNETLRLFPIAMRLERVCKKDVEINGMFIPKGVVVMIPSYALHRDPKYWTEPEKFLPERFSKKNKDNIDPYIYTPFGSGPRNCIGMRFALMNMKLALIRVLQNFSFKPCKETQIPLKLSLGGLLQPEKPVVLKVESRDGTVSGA
Chain of Cytochrome P450 2C9 (P11712 whole entry): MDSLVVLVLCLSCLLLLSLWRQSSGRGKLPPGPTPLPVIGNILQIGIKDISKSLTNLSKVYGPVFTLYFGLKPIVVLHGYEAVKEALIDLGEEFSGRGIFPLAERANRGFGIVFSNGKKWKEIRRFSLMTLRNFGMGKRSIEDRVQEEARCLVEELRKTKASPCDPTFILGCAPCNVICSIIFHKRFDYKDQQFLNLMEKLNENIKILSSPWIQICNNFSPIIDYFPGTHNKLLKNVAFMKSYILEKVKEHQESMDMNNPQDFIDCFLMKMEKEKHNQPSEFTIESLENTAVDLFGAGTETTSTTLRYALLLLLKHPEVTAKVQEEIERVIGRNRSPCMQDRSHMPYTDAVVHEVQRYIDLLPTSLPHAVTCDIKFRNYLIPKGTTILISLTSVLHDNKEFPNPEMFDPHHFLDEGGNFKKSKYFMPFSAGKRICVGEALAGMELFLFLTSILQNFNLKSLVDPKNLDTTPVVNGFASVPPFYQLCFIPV
Chain of C-C chemokine receptor type 5 (P51681 whole entry): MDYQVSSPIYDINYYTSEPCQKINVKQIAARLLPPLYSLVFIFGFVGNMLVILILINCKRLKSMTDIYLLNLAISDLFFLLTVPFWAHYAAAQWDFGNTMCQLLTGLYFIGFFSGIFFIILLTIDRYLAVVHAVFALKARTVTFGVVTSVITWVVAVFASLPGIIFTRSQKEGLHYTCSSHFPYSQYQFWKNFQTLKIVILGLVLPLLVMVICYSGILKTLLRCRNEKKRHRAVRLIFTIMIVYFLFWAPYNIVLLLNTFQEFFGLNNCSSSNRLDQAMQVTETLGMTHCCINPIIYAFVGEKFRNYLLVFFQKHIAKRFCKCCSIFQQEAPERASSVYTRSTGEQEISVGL

Work on CC(=O)N1CCc2c(nc(C)n2[C@@H]2C[C@H]3CC[C@@H](C2)N3CC[C@H](NC(=O)C2CCC(F)(F)CC2)c2ccsc2)C1 yielded an IC50 [1] of 0.0159 µM, an EC50 [2] of 0.01 µM and a CC50 at 48 h [3] greater than 200 µM. The CC50 at 48 h [4] was greater than 200 µM, the CC50 at 48 h [5] was greater than 200 µM and the CC50 at 48 h [6] was 103 µM. It also gave an EC50 [7] of 0.00764 µM, an EC50 [8] of 0.00289 µM and an EC50 [9] of 0.00066 µM. It also gave an EC50 [10] of 0.00029 µM, an EC50 [11] greater than 1 µM and an EC50 [12] of 0.0233 µM. It also gave an EC50 [13] of 0.00526 µM, an EC50 [14] of 0.019 µM and an EC50 [15] of 0.00271 µM. It also gave a CI [16] of 0.6, a CI [17] of 0.69 and a CI [18] of 0.47. The CI [19] was 0.75, the CI [20] was 0.44 and the CI [21] was 0.41. It also gave a CI [22] of 0.85, a CI [23] of 0.46 and a CI [24] of 0.5. For the same molecule, the CI [25] was 0.95, the CI [26] was 0.33 and the Cmax [27] was 66.4 ng/mL. It also gave a Tmax [28] of 2.67 h, a half-life [29] of 6.44 h and an AUC(0-t) at 24 h [30] of 270 ng·h/mL. The AUC ([31]; 24 h) was 270 ng·h/mL, the MRT [32] was 9.16 h and the F [33] was 11.9%. For the same molecule, the half-life [34] was 3.34 h, the AUC [35] was 270 ng·h/mL and the AUC [36] was 3.44 ng·h/mL. The MRT [37] was 9.16 h, the IC50 (Cytochrome P450 1A2) was greater than 25 µM and the IC50 (Cytochrome P450 2C9) was greater than 25 µM. The IC50 (Cytochrome P450 2C19) was greater than 25 µM, the IC50 (Cytochrome P450 2D6) was greater than 25 µM and the IC50 (Cytochrome P450 3A4 [38]) was greater than 25 µM. The IC50 (Cytochrome P450 3A4 [39]) was greater than 25 µM, the selectivity ratio (in vitro [40]) was greater than 20000 and the selectivity ratio (in vitro [41]) was greater than 30300. It also gave a selectivity ratio (in vitro [42]) greater than 69000, a selectivity ratio (in vitro [43]) greater than 69200 and a selectivity ratio (in vitro [44]) greater than 26200. The selectivity ratio (in vitro [45]) was 4400, the selectivity ratio (in vitro [46]) was 19500 and the selectivity ratio (in vitro [47]) was 5390.

Work on Cc1nnc(C(C)C)n1[C@@H]1C[C@H]2CC[C@@H](C1)N2CC[C@H](NC(=O)C1CCC(F)(F)CC1)c1ccccc1 [MARAVIROC] yielded a CC50 at 48 h [3] greater than 200 µM, a CC50 at 48 h [4] greater than 200 µM and a CC50 at 48 h [5] greater than 200 µM. For the same molecule, the CC50 at 48 h [6] was greater than 200 µM, the Cmax [27] was 5.5 ng/mL and the Tmax [28] was 2 h. The AUC(0-inf) ([31]; Sprague-Dawley) was 12.4 ng·h/mL, the half-life [34] was 0.9 h and the half-life [48] was 0.9 h. For the same molecule, the clearance [49] was 74 mL/min/kg, the IC50 (Cytochrome P450 1A2) was greater than 25 µM and the IC50 (Cytochrome P450 2C9) was 14.4 µM. It also gave an IC50 (Cytochrome P450 2C19) greater than 25 µM and an IC50 (Cytochrome P450 2D6) greater than 25 µM.
